pIC50: −log10 of the molar value.

For orientation: pIC50 means the negative decadic logarithm of the IC50, by convention in mol/L. Low readings indicate a large IC50, high ones a small IC50.

The target in this experiment is T1, Human HPK1, catalytic domain (Homo sapiens, UniProt Q92918).
T1 sequence (Q92918 1-346): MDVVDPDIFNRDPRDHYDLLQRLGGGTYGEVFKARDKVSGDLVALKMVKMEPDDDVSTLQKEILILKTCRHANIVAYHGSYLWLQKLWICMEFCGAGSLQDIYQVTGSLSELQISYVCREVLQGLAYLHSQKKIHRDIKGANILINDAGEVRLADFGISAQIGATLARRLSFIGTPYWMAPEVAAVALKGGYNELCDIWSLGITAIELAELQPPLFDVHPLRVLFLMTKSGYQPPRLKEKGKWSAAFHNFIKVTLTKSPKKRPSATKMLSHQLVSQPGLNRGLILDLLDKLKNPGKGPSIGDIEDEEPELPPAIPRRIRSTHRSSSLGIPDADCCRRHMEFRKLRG
As to the kind of experiment: HPK1-SLP76 TR-FRET Assay. Format: biochemical. The conditions noted are these: 75 pM HPK1, ATP 10 uM, SLP76 10 nM, 30 min pre-incubation, 60 min reaction. Background: In TR-FRET formats the signal depends on donor and acceptor labels being close together.
`CNC(=O)C1CCc2cc(Nc3ncc4cc(F)c(-c5cnc6c(c5C)NCCO6)cc4n3)ccc21` (single isomer, unassigned) [Compound 1-118, (R or S)-5-{[6-fluoro-7-(8-methyl-2,3-dihydro-1H-pyrido[2,3-b][1,4]oxazin-7-yl)quinazolin-2-yl]amino}-N-methyl-2,3-dihydro-1H-indene-1-carboxamide] had a pIC50 of 10.44.
The same measure for `CNC(=O)C1CCc2cc(Nc3ncc4cc(F)c(-c5cnc6c(c5C)NCCO6)cc4n3)ccc21` (single isomer, unassigned) [Compound 1-119, (R or S)-5-{[6-fluoro-7-(8-methyl-2,3-dihydro-1H-pyrido[2,3-b][1,4]oxazin-7-yl)quinazolin-2-yl]amino}-N-methyl-2,3-dihydro-1H-indene-1-carboxamide]: 8.93; for `Cc1c(-c2cc3nc(Nc4ccc(C(C)S(C)(=O)=O)cc4)ncc3cc2F)cnc2c1NCCO2` (single isomer, unassigned) [Compound 1-124, (R or S)-6-fluoro-7-(8-methyl-2,3-dihydro-1H-pyrido[2,3-b][1,4]oxazin-7-yl)-N-{4-[1-(methylsulfonyl)ethyl]phenyl} quinazolin-2-amine]: 10.39.
Compound `Cc1c(-c2cc3nc(Nc4ccc(C5CCN(C)C5=O)cc4)ncc3cc2F)cnc2c1NCCO2` (single isomer, unassigned) [Compound 1-125, (R or S)-3-(4-{[6-fluoro-7-(8-methyl-2,3-dihydro-1H-pyrido[2,3-b][1,4]oxazin-7-yl)quinazolin-2-yl]amino}phenyl)-1-methylpyrrolidin-2-one] showed a pIC50 of 10.22.
The same measure for `Cc1c(-c2cc3nc(Nc4ccc(C(C)S(C)(=O)=O)cc4)ncc3cc2F)cnc2c1NCCO2` (single isomer, unassigned) [Compound 1-126, (R of S)-6-fluoro-7-(8-methyl-2,3-dihydro-1H-pyrido[2,3-b][1,4]oxazin-7-yl)-N-{4-[1-(methylsulfonyl)ethyl]phenyl} quinazolin-2-amine]: 9.17; for `Cc1c(-c2cc3nc(Nc4ccc(C5CCN(C)C5=O)cc4)ncc3cc2F)cnc2c1NCCO2` (single isomer, unassigned) [Compound 1-127, (R of S)-3-(4-{[6-fluoro-7-(8-methyl-2,3-dihydro-1H-pyrido[2,3-b][1,4]oxazin-7-yl)quinazolin-2-yl]amino}phenyl)-1-methylpyrrolidin-2-one]: 9.02; for `CC(=O)NC1CCc2cc(Nc3ncc4c(N)c(F)c(-c5cnc6c(c5C)NCCO6)cc4n3)ccc21` (single isomer, unassigned) [Compound 2-10, (S or R)—N-(5-((5-amino-6-fluoro-7-(8-methyl-2,3-dihydro-1H-pyrido[2,3-b][1,4]oxazin-7-yl)quinazolin-2-yl)amino)-2,3-dihydro-1H-inden-1-yl)acetamide]: 9.90.
Take `CC(=O)NC1CCc2cc(Nc3ncc4c(N)c(F)c(-c5cnc6c(c5C)NCCO6)cc4n3)ccc21` (single isomer, unassigned) [Compound 2-11, (S or R)—N-(5-((5-amino-6-fluoro-7-(8-methyl-2,3-dihydro-1H-pyrido[2,3-b][1,4]oxazin-7-yl)quinazolin-2-yl)amino)-2,3-dihydro-1H-inden-1-yl)acetamide]: the pIC50 was 10.09.
The same measure for `CC(=O)N1CCCC1c1ccc(Nc2ncc3c(N)c(F)c(-c4cnc5c(c4C)NCCO5)cc3n2)cc1` (single isomer, unassigned) [Compound 2-28, (R or S)-1-[2-(4-{[5-amino-6-fluoro-7-(8-methyl-2,3-dihydro-1H-pyrido[2,3-b][1,4]oxazin-7-yl)quinazolin-2-yl]amino}phenyl)pyrrolidin-1-yl]ethan-1-one]: 9.83; for `CC(=O)N1CCCC1c1ccc(Nc2ncc3c(N)c(F)c(-c4cnc5c(c4C)NCCO5)cc3n2)cc1` (single isomer, unassigned) [Compound 2-29, (R or S)-1-[2-(4-{[5-amino-6-fluoro-7-(8-methyl-2,3-dihydro-1H-pyrido[2,3-b][1,4]oxazin-7-yl)quinazolin-2-yl]amino}phenyl)pyrrolidin-1-yl]ethan-1-one]: 9.56; for `COc1cc2c(cc1Nc1ncc3c(N)c(F)c(-c4cnc5c(c4C)NCCO5)cc3n1)C(C)N(C)CC2` (single isomer, unassigned) [Compound 2-35, (S or R)-6-fluoro-N^2-(6-methoxy-1,2-dimethyl-1,2,3,4-tetrahydroisoquinolin-7-yl)-7-(8-methyl-2,3-dihydro-1H-pyrido[2,3-b][14]oxazin-7-yl)quinazoline-2,5-diamine]: 9.82.
`COc1cc2c(cc1Nc1ncc3c(N)c(F)c(-c4cnc5c(c4C)NCCO5)cc3n1)C(C)N(C)CC2` (single isomer, unassigned) [Compound 2-36, (S or R)-6-fluoro-N^2-(6-methoxy-1,2-dimethyl-1,2,3,4-tetrahydroisoquinolin-7-yl)-7-(8-methyl-2,3-dihydro-1H-pyrido[2,3-b][1,4]oxazin-7-yl)quinazoline-2,5-diamine] showed a pIC50 of 10.00.
The same measure for `COc1cc(C2CCN(C)C2=O)ccc1Nc1ncc2c(N)c(F)c(-c3cnc4c(c3C)NCCO4)cc2n1` (single isomer, unassigned) [Compound 2-54, (R or S)-3-(4-{[5-amino-6-fluoro-7-(8-methyl-2,3-dihydro-1H-pyrido[2,3-b][1,4]oxazin-7-yl)quinazolin-2-yl]amino}-3-methoxyphenyl)-1-methylpyrrolidin-2-one]: 10.11.
Turning to `COc1cc(C(C)S(C)(=O)=O)ccc1Nc1ncc2c(N)c(F)c(-c3cnc4c(c3C)NCCO4)cc2n1` (single isomer, unassigned) [Compound 2-55, (R or S)-6-fluoro-N˜2˜-{2-methoxy-4-[1-(methylsulfonyl)ethyl]phenyl}-7-(8-methyl-2,3-dihydro-1H-pyrido[2,3-b][1,4]oxazin-7-yl)quinazoline-2,5-diamine], the pIC50 is 8.79.
The same measure for `COc1cc(C(C)S(C)(=O)=O)ccc1Nc1ncc2c(N)c(F)c(-c3cnc4c(c3C)NCCO4)cc2n1` (single isomer, unassigned) [Compound 2-56, (R or S)-6-fluoro-N˜2˜-{2-methoxy-4-[1-(methylsulfonyl)ethyl]phenyl}-7-(8-methyl-2,3-dihydro-1H-pyrido[2,3-b][1,4]oxazin-7-yl)quinazoline-2,5-diamine]: 9.99.
The same measure for `COc1cc(C2CCN(C)C2=O)ccc1Nc1ncc2c(N)c(F)c(-c3cnc4c(c3C)NCCO4)cc2n1` (single isomer, unassigned) [Compound 2-57, (R or S)-3-(4-{[5-amino-6-fluoro-7-(8-methyl-2,3-dihydro-1H-pyrido[2,3-b][1,4]oxazin-7-ylquinazolin-2-yl]amino}-3-methoxyphenyl)-1-methylpyrrolidin-2-one]: 9.04.
The same measure for `Cc1c(-c2cc3nc(Nc4ccc(C(C)S(C)(=O)=O)cc4)ncc3c(N)c2F)cnc2c1NCCO2` (single isomer, unassigned) [Compound 2-62, (R or S)-6-fluoro-7-(8-methyl-2,3-dihydro-1H-pyrido[2,3-b][1,4]oxazin-7-yl)-N˜2˜-{4-[1-(methylsulfonyl)ethyl]phenyl}quinazoline-2,5-diamine]: 10.21; for `Cc1c(-c2cc3nc(Nc4ccc(C(C)S(C)(=O)=O)cc4)ncc3c(N)c2F)cnc2c1NCCO2` (single isomer, unassigned) [Compound 2-63, (R or S)-6-fluoro-7-(8-methyl-2,3-dihydro-1H-pyrido[2,3-b][1,4]oxazin-7-yl)-N˜2˜-{4-[1-(methylsulfonyl)ethyl]phenyl}quinazoline-2,5-diamine]: 10.06.
In the case of `Cc1c(-c2cc3nc(Nc4ccc5c(c4)CN(C)C(C)C5)ncc3c(N)c2F)cnc2c1NCCO2` (single isomer, unassigned) [Compound 2-85, (R or S)—N2-(2,3-dimethyl-1,2,3,4-tetrahydroisoquinolin-7-yl)-6-fluoro-7-(8-methyl-2,3-dihydro-1H-pyrido[2,3-b][1,4]oxazin-7-yl)quinazoline-2,5-diamine], the pIC50 was 10.48.
The same measure for `Cc1c(-c2cc3nc(Nc4ccc5c(c4)CN(C)C(C)C5)ncc3c(N)c2F)cnc2c1NCCO2` (single isomer, unassigned) [Compound 2-86, (R or S)—N2-(2,3-dimethyl-1,2,3,4-tetrahydroisoquinolin-7-yl)-6-fluoro-7-(8-methyl-2,3-dihydro-1H-pyrido[2,3-b][1,4]oxazin-7-yl)quinazoline-2,5-diamine]: 10.42; for `COc1cc2c(cc1Nc1ncc3c(N)c(F)c(-c4cnc5c(c4C)NCCO5)c(Cl)c3n1)CN(C)CC2` (single isomer, unassigned) [Compound 2-93, (+ or −)-8-chloro-6-fluoro-N~2~-(6-methoxy-2-methyl-1,2,3,4-tetrahydroisoquinolin-7-yl)-7-(8-methyl-2,3-dihydro-1H-pyrido[2,3-b][1,4]oxazin-7-yl)quinazoline-2,5-diamine]: 10.67; for `COc1cc(CS(C)(=O)=O)ccc1Nc1ncc2c(N)c(F)c(-c3cnc4c(c3C)NCCO4)c(Cl)c2n1` (single isomer, unassigned) [Compound 2-99, (+ or −)-8-chloro-6-fluoro-N~2~-{2-methoxy-4-[(methylsulfonyl)methyl]phenyl}-7-(8-methyl-2,3-dihydro-1H-pyrido[2,3-b][1,4]oxazin-7-yl)quinazoline-2,5-diamine]: 7.90.

The record behind these values is patent US20230399341A1, “7-PHENYL SUBSTITUTED 2-AMINOQUINAZOLINE INHIBITORS OF HPK1” (MERCK SHARP & DOHME LLC, priority 2020, published 2023).
